# Source: ChEMBL document CHEMBL5465560, “Selectivity Literature for EUbOPEN Chemogenomic Library” (2024)
# What was measured:
# [1] = target: Serine/threonine-protein kinase Chk2 (Homo sapiens) (UniProt O96017); assay: Selectivity interaction (Kinase panel (DSF assay)) EUB0001558a CHEK2
# [2] = target: Ribosomal protein S6 kinase beta-1 (Homo sapiens, UniProt P23443); assay: Selectivity interaction (Upstate Kinase Profiler service (Millipore)) EUB0000056c RPS6KB1; conditions: at 1 µM
# [3] = target: Serine/threonine-protein kinase PLK3 (Homo sapiens, UniProt Q9H4B4); assay: Selectivity interaction (Upstate Kinase Profiler service (Millipore)) EUB0000056c PLK3; conditions: at 1 µM
# Chain of Serine/threonine-protein kinase PLK3 (Q9H4B4 whole entry, looked up): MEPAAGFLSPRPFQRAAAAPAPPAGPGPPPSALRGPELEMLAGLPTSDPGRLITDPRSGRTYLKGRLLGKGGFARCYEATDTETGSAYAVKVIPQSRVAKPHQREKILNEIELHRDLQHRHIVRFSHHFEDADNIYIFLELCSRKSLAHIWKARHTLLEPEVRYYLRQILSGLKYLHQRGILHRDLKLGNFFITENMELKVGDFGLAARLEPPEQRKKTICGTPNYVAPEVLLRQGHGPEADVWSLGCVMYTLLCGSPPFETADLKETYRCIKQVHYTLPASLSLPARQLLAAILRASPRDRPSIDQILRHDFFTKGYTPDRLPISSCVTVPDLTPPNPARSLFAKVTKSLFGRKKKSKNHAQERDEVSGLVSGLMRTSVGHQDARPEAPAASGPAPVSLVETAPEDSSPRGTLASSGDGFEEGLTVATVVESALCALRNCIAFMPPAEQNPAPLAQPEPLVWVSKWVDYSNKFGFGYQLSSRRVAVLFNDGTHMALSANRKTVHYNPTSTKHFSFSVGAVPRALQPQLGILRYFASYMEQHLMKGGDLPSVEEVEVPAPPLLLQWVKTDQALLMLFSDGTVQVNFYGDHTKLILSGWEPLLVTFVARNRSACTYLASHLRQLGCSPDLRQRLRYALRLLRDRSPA
# [4] = target: Mitogen-activated protein kinase 10 (Homo sapiens, UniProt P53779); assay: Selectivity interaction (ProQinase) EUB0000171b MAPK10
# Chain of Mitogen-activated protein kinase 10 (P53779 whole entry): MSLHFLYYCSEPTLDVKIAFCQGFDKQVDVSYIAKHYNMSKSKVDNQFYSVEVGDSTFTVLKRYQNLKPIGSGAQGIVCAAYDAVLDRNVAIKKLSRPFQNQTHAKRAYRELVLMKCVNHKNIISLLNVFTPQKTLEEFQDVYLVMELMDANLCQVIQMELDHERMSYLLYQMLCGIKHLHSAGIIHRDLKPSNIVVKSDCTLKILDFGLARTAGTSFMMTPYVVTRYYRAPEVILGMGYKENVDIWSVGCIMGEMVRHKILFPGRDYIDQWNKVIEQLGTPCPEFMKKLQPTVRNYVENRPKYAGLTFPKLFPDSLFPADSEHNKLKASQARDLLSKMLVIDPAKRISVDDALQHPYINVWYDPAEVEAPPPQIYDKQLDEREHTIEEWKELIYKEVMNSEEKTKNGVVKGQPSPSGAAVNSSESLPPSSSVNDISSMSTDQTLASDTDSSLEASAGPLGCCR
# [5] = target: T1, Dual specificity mitogen-activated protein kinase kinase 3 (Homo sapiens) (UniProt P46734); assay: Selectivity interaction (KinomeScan (DiscoverX)) EUB0001079a MAP2K3; conditions: at 1 µM
# T1 sequence (whole entry): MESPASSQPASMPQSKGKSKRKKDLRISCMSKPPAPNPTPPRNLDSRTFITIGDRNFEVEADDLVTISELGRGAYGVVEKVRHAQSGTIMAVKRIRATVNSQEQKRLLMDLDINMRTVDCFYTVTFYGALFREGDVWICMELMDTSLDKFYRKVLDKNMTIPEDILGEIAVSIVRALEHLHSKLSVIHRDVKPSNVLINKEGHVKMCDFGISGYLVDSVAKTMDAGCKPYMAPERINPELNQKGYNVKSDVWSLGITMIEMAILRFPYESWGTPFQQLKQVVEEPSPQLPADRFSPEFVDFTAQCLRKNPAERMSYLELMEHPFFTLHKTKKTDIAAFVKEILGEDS
# [6] = target: T2, 5-hydroxytryptamine receptor 3A (Homo sapiens) (UniProt P46098); assay: Selectivity interaction (GPCR panel (PDSP screen)) EUB0001079a HTR3A; conditions: at 10 µM
# T2 sequence (whole entry): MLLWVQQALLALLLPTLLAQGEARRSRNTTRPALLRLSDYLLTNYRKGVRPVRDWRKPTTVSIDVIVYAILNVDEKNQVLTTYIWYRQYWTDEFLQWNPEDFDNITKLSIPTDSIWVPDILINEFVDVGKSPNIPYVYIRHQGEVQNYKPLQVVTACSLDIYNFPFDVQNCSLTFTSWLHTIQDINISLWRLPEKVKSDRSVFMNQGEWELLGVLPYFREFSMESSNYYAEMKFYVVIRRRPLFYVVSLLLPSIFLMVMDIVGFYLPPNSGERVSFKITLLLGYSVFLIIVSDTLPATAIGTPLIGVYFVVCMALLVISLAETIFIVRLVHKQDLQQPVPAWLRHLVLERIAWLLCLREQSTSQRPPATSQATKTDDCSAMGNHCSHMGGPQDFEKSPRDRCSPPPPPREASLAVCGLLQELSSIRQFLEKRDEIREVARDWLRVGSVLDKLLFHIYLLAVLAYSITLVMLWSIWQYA
# [7] = target: T3, Muscarinic acetylcholine receptor M1 (Homo sapiens) (UniProt P11229); assay: Selectivity interaction (GPCR panel (PDSP screen)) EUB0001079a CHRM1; conditions: at 10 µM
# T3 sequence (whole entry): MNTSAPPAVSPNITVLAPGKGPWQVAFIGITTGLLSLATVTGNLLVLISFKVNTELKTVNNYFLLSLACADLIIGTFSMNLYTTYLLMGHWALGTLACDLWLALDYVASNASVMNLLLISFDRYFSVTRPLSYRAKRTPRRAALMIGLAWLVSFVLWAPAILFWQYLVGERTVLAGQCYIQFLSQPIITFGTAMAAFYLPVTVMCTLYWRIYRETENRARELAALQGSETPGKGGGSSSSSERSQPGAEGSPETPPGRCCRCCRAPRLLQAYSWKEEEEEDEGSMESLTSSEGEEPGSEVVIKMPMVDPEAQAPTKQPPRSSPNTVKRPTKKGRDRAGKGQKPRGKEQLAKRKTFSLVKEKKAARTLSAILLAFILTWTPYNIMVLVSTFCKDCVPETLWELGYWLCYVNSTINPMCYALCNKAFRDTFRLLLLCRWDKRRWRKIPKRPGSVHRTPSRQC
# [8] = target: Cyclin-dependent kinase-like 3 (Homo sapiens) (UniProt Q8IVW4); conditions: at 10 µM
# Chain of Cyclin-dependent kinase-like 3 (Homo sapiens) (Q8IVW4 whole entry, looked up): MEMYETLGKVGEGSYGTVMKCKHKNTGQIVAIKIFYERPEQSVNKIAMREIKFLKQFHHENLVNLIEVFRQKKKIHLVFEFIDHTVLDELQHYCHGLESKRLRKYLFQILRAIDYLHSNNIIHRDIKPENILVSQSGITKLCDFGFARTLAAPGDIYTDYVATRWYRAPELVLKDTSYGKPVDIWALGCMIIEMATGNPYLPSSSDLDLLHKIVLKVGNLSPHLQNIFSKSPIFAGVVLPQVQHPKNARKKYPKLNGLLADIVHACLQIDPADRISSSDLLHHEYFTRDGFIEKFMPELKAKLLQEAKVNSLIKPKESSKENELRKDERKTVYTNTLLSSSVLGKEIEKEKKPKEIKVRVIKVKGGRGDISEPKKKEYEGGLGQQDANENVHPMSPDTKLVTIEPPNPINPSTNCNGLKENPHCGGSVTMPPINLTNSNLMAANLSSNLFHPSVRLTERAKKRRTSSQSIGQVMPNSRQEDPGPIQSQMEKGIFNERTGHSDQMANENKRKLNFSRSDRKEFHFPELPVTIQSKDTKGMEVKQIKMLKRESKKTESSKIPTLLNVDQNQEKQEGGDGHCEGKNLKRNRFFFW
# [9] = system: Mast/stem cell growth factor receptor Kit (Homo sapiens), P10721 [V559D,T670I]; conditions: at 10 µM
# Chain of Mast/stem cell growth factor receptor Kit (Homo sapiens), P10721 [V559D,T670I] (P10721 whole entry V559D/T670I): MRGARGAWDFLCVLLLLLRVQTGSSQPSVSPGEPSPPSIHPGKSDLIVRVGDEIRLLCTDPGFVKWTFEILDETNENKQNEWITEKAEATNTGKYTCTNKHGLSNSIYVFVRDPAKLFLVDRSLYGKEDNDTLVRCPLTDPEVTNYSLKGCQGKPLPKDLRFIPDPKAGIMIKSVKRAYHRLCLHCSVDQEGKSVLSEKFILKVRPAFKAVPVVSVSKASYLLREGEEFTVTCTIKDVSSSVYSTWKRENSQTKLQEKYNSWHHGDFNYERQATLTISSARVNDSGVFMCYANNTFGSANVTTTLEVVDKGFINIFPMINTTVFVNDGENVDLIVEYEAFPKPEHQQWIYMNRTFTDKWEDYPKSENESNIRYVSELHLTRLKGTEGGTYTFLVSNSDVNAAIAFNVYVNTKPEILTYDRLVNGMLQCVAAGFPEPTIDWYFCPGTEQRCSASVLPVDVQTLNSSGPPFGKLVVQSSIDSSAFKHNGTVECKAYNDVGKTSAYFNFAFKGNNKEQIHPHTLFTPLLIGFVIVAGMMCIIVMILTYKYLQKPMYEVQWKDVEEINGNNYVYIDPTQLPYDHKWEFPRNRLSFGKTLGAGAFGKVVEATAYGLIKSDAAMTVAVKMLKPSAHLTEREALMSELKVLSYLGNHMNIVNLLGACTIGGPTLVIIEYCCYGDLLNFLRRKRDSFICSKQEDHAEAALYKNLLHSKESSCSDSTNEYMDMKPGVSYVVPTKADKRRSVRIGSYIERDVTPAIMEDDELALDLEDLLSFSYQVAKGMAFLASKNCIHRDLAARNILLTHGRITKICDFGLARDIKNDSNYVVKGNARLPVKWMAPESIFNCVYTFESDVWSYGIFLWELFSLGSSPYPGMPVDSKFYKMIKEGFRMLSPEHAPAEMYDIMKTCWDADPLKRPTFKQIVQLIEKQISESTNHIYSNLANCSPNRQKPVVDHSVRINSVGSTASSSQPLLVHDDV
# [10] = target: Vascular endothelial growth factor receptor 3 (Homo sapiens, UniProt P35916); assay: Selectivity interaction (KinomeScan (DiscoverX)) EUB0000695a FLT4; conditions: at 100 nM
# [11] = target: Homeodomain-interacting protein kinase 1 (Homo sapiens, UniProt Q86Z02); assay: Selectivity interaction (KinomeScan (DiscoverX)) EUB0000618a HIPK1; conditions: at 10 µM
# Chain of Homeodomain-interacting protein kinase 1 (Q86Z02 whole entry, looked up): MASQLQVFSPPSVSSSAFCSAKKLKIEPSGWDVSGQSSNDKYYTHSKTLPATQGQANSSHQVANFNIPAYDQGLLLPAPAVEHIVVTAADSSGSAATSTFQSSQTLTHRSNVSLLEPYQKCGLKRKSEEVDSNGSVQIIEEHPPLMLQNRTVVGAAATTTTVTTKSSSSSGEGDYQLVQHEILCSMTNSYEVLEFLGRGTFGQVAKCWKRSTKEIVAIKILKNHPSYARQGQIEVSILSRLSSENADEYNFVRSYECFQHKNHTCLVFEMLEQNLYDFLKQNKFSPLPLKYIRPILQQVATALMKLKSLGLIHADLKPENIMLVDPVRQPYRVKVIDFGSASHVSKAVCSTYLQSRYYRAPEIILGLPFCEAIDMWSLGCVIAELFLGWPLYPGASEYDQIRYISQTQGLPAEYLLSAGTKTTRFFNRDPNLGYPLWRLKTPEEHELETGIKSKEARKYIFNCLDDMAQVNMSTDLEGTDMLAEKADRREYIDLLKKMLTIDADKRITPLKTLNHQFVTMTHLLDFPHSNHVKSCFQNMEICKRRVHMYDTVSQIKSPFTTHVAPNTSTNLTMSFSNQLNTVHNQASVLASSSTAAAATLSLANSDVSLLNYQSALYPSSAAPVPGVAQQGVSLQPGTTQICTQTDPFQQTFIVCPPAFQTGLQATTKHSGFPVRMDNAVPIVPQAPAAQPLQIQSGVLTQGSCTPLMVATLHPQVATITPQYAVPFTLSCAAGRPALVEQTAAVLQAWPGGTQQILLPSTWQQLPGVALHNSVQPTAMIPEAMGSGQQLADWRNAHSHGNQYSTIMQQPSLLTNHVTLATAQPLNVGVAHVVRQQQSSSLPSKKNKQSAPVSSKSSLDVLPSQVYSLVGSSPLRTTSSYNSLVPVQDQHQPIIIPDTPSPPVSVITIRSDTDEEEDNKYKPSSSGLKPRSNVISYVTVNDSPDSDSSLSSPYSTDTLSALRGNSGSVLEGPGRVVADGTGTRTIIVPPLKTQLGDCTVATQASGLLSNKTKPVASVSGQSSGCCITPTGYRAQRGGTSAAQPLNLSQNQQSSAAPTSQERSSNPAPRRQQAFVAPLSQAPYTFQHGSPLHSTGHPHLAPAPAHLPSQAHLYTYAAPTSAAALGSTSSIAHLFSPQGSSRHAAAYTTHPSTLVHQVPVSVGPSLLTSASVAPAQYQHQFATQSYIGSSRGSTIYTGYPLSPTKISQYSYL
# [12] = target: T4, Serine/threonine-protein kinase Sgk1 (Homo sapiens) (UniProt O00141); assay: Selectivity interaction (Ambit KINOMEscan and KiNATiv profiling in Jurkat cells) EUB0000090b SGK1; assay type: cell-based; conditions: at 1 µM
# T4 sequence (whole entry): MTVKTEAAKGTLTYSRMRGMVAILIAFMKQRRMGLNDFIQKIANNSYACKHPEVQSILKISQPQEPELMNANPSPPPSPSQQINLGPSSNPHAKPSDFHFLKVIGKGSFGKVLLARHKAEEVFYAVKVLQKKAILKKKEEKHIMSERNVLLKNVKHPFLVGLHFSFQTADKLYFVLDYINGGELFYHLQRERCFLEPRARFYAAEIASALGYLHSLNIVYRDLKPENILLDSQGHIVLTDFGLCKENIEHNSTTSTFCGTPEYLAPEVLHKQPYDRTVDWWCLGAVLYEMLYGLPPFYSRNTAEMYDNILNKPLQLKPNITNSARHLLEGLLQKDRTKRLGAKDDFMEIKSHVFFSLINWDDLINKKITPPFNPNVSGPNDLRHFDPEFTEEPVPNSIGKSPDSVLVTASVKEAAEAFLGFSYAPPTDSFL
# Chain of Ribosomal protein S6 kinase beta-1 (P23443 whole entry, looked up): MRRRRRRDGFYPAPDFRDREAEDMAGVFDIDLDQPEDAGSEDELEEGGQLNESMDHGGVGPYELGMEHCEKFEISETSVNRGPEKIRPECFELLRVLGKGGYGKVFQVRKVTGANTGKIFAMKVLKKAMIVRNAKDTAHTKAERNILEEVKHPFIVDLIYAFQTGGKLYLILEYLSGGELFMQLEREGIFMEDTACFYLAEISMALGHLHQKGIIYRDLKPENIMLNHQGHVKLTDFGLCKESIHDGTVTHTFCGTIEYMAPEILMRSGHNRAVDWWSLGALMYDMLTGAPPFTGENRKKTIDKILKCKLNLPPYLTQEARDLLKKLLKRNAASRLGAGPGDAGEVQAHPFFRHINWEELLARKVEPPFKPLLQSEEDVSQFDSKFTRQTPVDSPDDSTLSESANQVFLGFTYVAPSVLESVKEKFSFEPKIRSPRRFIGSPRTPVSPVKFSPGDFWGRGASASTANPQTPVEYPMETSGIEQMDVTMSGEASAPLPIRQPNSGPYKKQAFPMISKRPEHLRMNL
# Chain of Serine/threonine-protein kinase Chk2 (Homo sapiens) (O96017 whole entry): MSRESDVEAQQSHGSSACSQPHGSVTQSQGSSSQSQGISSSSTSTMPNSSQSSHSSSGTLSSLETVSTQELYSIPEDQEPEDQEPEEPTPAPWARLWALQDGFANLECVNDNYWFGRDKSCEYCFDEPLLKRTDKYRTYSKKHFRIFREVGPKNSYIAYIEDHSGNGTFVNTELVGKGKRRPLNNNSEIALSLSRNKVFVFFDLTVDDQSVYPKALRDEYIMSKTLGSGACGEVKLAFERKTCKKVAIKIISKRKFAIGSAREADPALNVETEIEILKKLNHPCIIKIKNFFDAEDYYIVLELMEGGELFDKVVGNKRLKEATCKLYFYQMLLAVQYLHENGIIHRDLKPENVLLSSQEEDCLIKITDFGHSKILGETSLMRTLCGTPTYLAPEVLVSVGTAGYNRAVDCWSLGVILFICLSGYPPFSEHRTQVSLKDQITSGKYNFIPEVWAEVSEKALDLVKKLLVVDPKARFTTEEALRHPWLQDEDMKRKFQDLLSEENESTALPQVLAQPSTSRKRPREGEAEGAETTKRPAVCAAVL
compound,measurement,setting,value
CC(C)(O)[C@H](F)CN1Cc2cc(NC(=O)c3cnn4cccnc34)c(N3CCOCC3)cc2C1=O,dTM,[1],1.5 K
Cc1ccc(-c2ccc3c(ccc4sc5c(c43)NC[C@@H](C)NC5=O)n2)cn1,% of inhibition,[2],8%
same,% of inhibition,[3],-2%
C=CC(=O)Nc1cccc(C(=O)Nc2ccc(Nc3cc(-c4[nH]c(SC)nc4C)ccn3)cc2)c1,% of control,[4]; at 1 µM,3%
same,% of control,[4]; at 5 µM,0%
Nc1cnc(N2CCc3cc(S(=O)(=O)Nc4c(F)cc(Cl)cc4F)cc(N4CCCC4=O)c32)nc1 [TP-020n],% of control,[5],100%
same,% of inhibition,[6],0.32%
same,% of inhibition,[7],-9.48%
Cc1cc([C@@H](C)Nc2ccccc2C(=O)O)c2nc(N3CCOCC3)cc(=O)n2c1 [AZD-6482],% of control,[8],90%
same,% of control,[9],91%
Cc1cc(F)c(C(=O)Nc2cccc(-c3nncn3C(C)C)n2)cc1-n1cnc(C2CC2)c1,% of control,[10],100%
O[C@H]1CC[C@H](Nc2ncc3nc(Nc4c(F)cc(F)cc4F)n([C@H]4CCOC4)c3n2)CC1,% of control,[11],93%
CN(C)C/C=C/C(=O)Nc1ccc(C(=O)N2CCCC(Nc3ncc(Cl)c(-c4c[nH]c5ccccc45)n3)C2)cc1 (stereo not drawn),% of control,[12],99%
